Assay results from the NIST ThermoML archive (doi:10.1021/je400134d).
± gives the expanded uncertainty stated by the source.

Test: xn = mol fraction of the nth substance listed
Settings: 100 kPa, Liquid; for speed of sound: Pulse-echo method; for mass density: Vibrating tube method

CNc1ccccc1 [N-methylaniline] + C1CCCCC1 gave a speed of sound (293.15 K, x1 = 0.0516) of 1285.7 ± 1.4 m/s, a speed of sound (293.15 K, x1 = 0.1047) of 1294.4 ± 1.4 m/s and a speed of sound (293.15 K, x1 = 0.1522) of 1303 ± 1.4 m/s. It also gave a speed of sound (293.15 K, x1 = 0.2023) of 1313.2 ± 1.5 m/s, a speed of sound (293.15 K, x1 = 0.2482) of 1322.9 ± 1.5 m/s and a speed of sound (293.15 K, x1 = 0.3018) of 1335.3 ± 1.6 m/s. It also gave a speed of sound (293.15 K, x1 = 0.3462) of 1346.3 ± 1.6 m/s, a speed of sound (293.15 K, x1 = 0.4049) of 1362 ± 1.7 m/s and a speed of sound (293.15 K, x1 = 0.4478) of 1374.1 ± 1.7 m/s. It also gave a speed of sound (293.15 K, x1 = 0.4972) of 1389.1 ± 1.8 m/s, a speed of sound (293.15 K, x1 = 0.5444) of 1404.1 ± 1.8 m/s and a speed of sound (293.15 K, x1 = 0.5942) of 1420.7 ± 1.9 m/s. It also gave a speed of sound (293.15 K, x1 = 0.6445) of 1438.3 ± 1.9 m/s, a speed of sound (293.15 K, x1 = 0.6931) of 1456 ± 2 m/s and a speed of sound (293.15 K, x1 = 0.7564) of 1480.3 ± 2.1 m/s. It also gave a speed of sound (293.15 K, x1 = 0.7917) of 1494.2 ± 2.1 m/s, a speed of sound (293.15 K, x1 = 0.8372) of 1512.7 ± 2.2 m/s and a speed of sound (293.15 K, x1 = 0.89) of 1534.8 ± 2.2 m/s. The speed of sound (293.15 K, x1 = 0.9446) was 1558.2 ± 2.3 m/s, the mass density (293.15 K, x1 = 0.0516) was 787.947 ± 0.25 kg/m3 and the mass density (293.15 K, x1 = 0.1047) was 798.075 ± 0.25 kg/m3. It also gave a mass density (293.15 K, x1 = 0.1522) of 807.416 ± 0.26 kg/m3, a mass density (293.15 K, x1 = 0.2023) of 817.479 ± 0.27 kg/m3 and a mass density (293.15 K, x1 = 0.2482) of 826.755 ± 0.27 kg/m3. It also gave a mass density (293.15 K, x1 = 0.3018) of 837.718 ± 0.29 kg/m3, a mass density (293.15 K, x1 = 0.3462) of 846.906 ± 0.3 kg/m3 and a mass density (293.15 K, x1 = 0.4049) of 859.091 ± 0.32 kg/m3. It also gave a mass density (293.15 K, x1 = 0.4478) of 868.011 ± 0.34 kg/m3, a mass density (293.15 K, x1 = 0.4972) of 878.435 ± 0.36 kg/m3 and a mass density (293.15 K, x1 = 0.5444) of 888.383 ± 0.39 kg/m3. It also gave a mass density (293.15 K, x1 = 0.5942) of 898.936 ± 0.42 kg/m3, a mass density (293.15 K, x1 = 0.6445) of 909.64 ± 0.45 kg/m3 and a mass density (293.15 K, x1 = 0.6931) of 920.029 ± 0.49 kg/m3. The mass density (293.15 K, x1 = 0.7564) was 933.633 ± 0.55 kg/m3, the mass density (293.15 K, x1 = 0.7917) was 941.225 ± 0.58 kg/m3 and the mass density (293.15 K, x1 = 0.8372) was 951.07 ± 0.63 kg/m3. It also gave a mass density (293.15 K, x1 = 0.89) of 962.5 ± 0.69 kg/m3, a mass density (293.15 K, x1 = 0.9446) of 974.383 ± 0.76 kg/m3 and a speed of sound (298.15 K, x1 = 0.0673) of 1264.5 ± 1.4 m/s. The speed of sound (298.15 K, x1 = 0.1073) was 1271.7 ± 1.4 m/s, the speed of sound (298.15 K, x1 = 0.1609) was 1282 ± 1.4 m/s and the speed of sound (298.15 K, x1 = 0.2065) was 1291.8 ± 1.5 m/s. For the same compound, the speed of sound (298.15 K, x1 = 0.2536) was 1302.3 ± 1.5 m/s, the speed of sound (298.15 K, x1 = 0.2963) was 1312.6 ± 1.6 m/s and the speed of sound (298.15 K, x1 = 0.3554) was 1327.8 ± 1.6 m/s. For the same compound, the speed of sound (298.15 K, x1 = 0.3981) was 1339.6 ± 1.7 m/s, the speed of sound (298.15 K, x1 = 0.4479) was 1354 ± 1.7 m/s and the speed of sound (298.15 K, x1 = 0.5055) was 1371.8 ± 1.8 m/s. For the same compound, the speed of sound (298.15 K, x1 = 0.5537) was 1387.5 ± 1.8 m/s, the speed of sound (298.15 K, x1 = 0.5968) was 1402.5 ± 1.9 m/s and the speed of sound (298.15 K, x1 = 0.6482) was 1420.6 ± 1.9 m/s. It also gave a speed of sound (298.15 K, x1 = 0.6939) of 1437.6 ± 2 m/s, a speed of sound (298.15 K, x1 = 0.753) of 1460.4 ± 2.1 m/s and a speed of sound (298.15 K, x1 = 0.795) of 1477.2 ± 2.1 m/s. For the same compound, the speed of sound (298.15 K, x1 = 0.8347) was 1493.6 ± 2.2 m/s, the speed of sound (298.15 K, x1 = 0.8896) was 1516.7 ± 2.2 m/s and the speed of sound (298.15 K, x1 = 0.9399) was 1538.5 ± 2.3 m/s. For the same compound, the mass density (298.15 K, x1 = 0.0673) was 786.236 ± 0.25 kg/m3, the mass density (298.15 K, x1 = 0.1073) was 793.946 ± 0.25 kg/m3 and the mass density (298.15 K, x1 = 0.1609) was 804.548 ± 0.26 kg/m3. It also gave a mass density (298.15 K, x1 = 0.2065) of 813.772 ± 0.27 kg/m3, a mass density (298.15 K, x1 = 0.2536) of 823.353 ± 0.28 kg/m3 and a mass density (298.15 K, x1 = 0.2963) of 832.165 ± 0.28 kg/m3. The mass density (298.15 K, x1 = 0.3554) was 844.401 ± 0.3 kg/m3, the mass density (298.15 K, x1 = 0.3981) was 853.363 ± 0.32 kg/m3 and the mass density (298.15 K, x1 = 0.4479) was 863.765 ± 0.34 kg/m3. For the same compound, the mass density (298.15 K, x1 = 0.5055) was 875.962 ± 0.37 kg/m3, the mass density (298.15 K, x1 = 0.5537) was 886.222 ± 0.39 kg/m3 and the mass density (298.15 K, x1 = 0.5968) was 895.414 ± 0.42 kg/m3. The mass density (298.15 K, x1 = 0.6482) was 906.388 ± 0.46 kg/m3, the mass density (298.15 K, x1 = 0.6939) was 916.254 ± 0.49 kg/m3 and the mass density (298.15 K, x1 = 0.753) was 928.945 ± 0.54 kg/m3. The mass density (298.15 K, x1 = 0.795) was 938.08 ± 0.58 kg/m3, the mass density (298.15 K, x1 = 0.8347) was 946.748 ± 0.62 kg/m3 and the mass density (298.15 K, x1 = 0.8896) was 958.645 ± 0.69 kg/m3. It also gave a mass density (298.15 K, x1 = 0.9399) of 969.599 ± 0.75 kg/m3, a speed of sound (303.15 K, x1 = 0.0581) of 1239.8 ± 1.4 m/s and a speed of sound (303.15 K, x1 = 0.1038) of 1248.4 ± 1.4 m/s. It also gave a speed of sound (303.15 K, x1 = 0.1557) of 1258.8 ± 1.4 m/s, a speed of sound (303.15 K, x1 = 0.2015) of 1268.8 ± 1.5 m/s and a speed of sound (303.15 K, x1 = 0.2526) of 1280.6 ± 1.5 m/s. The speed of sound (303.15 K, x1 = 0.2975) was 1291.7 ± 1.6 m/s, the speed of sound (303.15 K, x1 = 0.3479) was 1304.9 ± 1.6 m/s and the speed of sound (303.15 K, x1 = 0.3974) was 1318.7 ± 1.7 m/s. The speed of sound (303.15 K, x1 = 0.451) was 1334.5 ± 1.7 m/s, the speed of sound (303.15 K, x1 = 0.5005) was 1351.5 ± 1.8 m/s and the speed of sound (303.15 K, x1 = 0.5512) was 1366.7 ± 1.8 m/s. It also gave a speed of sound (303.15 K, x1 = 0.5922) of 1380.8 ± 1.9 m/s, a speed of sound (303.15 K, x1 = 0.6575) of 1404.2 ± 1.9 m/s and a speed of sound (303.15 K, x1 = 0.6956) of 1418.6 ± 2 m/s. It also gave a speed of sound (303.15 K, x1 = 0.7501) of 1439.9 ± 2.1 m/s, a speed of sound (303.15 K, x1 = 0.7995) of 1459.7 ± 2.1 m/s and a speed of sound (303.15 K, x1 = 0.8447) of 1478.6 ± 2.2 m/s. It also gave a speed of sound (303.15 K, x1 = 0.8956) of 1500 ± 2.2 m/s, a speed of sound (303.15 K, x1 = 0.9411) of 1520 ± 2.3 m/s and a mass density (303.15 K, x1 = 0.0581) of 779.854 ± 0.25 kg/m3. For the same compound, the mass density (303.15 K, x1 = 0.1038) was 788.651 ± 0.25 kg/m3, the mass density (303.15 K, x1 = 0.1557) was 798.906 ± 0.26 kg/m3 and the mass density (303.15 K, x1 = 0.2015) was 808.134 ± 0.27 kg/m3. It also gave a mass density (303.15 K, x1 = 0.2526) of 818.565 ± 0.28 kg/m3, a mass density (303.15 K, x1 = 0.2975) of 827.884 ± 0.29 kg/m3 and a mass density (303.15 K, x1 = 0.3479) of 838.328 ± 0.3 kg/m3. The mass density (303.15 K, x1 = 0.3974) was 848.695 ± 0.32 kg/m3, the mass density (303.15 K, x1 = 0.451) was 859.961 ± 0.34 kg/m3 and the mass density (303.15 K, x1 = 0.5005) was 870.442 ± 0.36 kg/m3. It also gave a mass density (303.15 K, x1 = 0.5512) of 881.294 ± 0.39 kg/m3, a mass density (303.15 K, x1 = 0.5922) of 890.064 ± 0.42 kg/m3 and a mass density (303.15 K, x1 = 0.6575) of 904.033 ± 0.46 kg/m3. The mass density (303.15 K, x1 = 0.6956) was 912.351 ± 0.49 kg/m3, the mass density (303.15 K, x1 = 0.7501) was 924.185 ± 0.54 kg/m3 and the mass density (303.15 K, x1 = 0.7995) was 934.921 ± 0.59 kg/m3. For the same compound, the mass density (303.15 K, x1 = 0.8447) was 944.844 ± 0.64 kg/m3, the mass density (303.15 K, x1 = 0.8956) was 955.901 ± 0.69 kg/m3 and the mass density (303.15 K, x1 = 0.9411) was 965.875 ± 0.75 kg/m3.
